Data as given in patent publication US20220046917A1, “ATTRACTANT BLEND COMPOSITIONS, DEVICES AND METHODS FOR ATTRACTING FEMALE MICE” (priority 2020, published 2022).

How the values were obtained:
wild mice [1] = assay: Experiment 4: field experiment, captures in paired baited trap boxes; assay type: in vivo, Mus musculus; settings: Exp. 4, paired trap boxes
Description: (§1) Each replicate (n=49) consisted of paired trap boxes as depicted in FIG. 4. The paired trap boxes, PROTECTA® Mouse, Bell Laboratories Inc. Madison, Wis.
(§2) Twice every week, paired trap boxes were checked, and food lures and pheromone lures replaced. Whenever a mouse had been captured, its sex and age (juvenile or adult based on body size and genitalia development) were recorded, and a new trap box and snap trap were deployed. […] The position of the treatment and the control trap within paired trap boxes was re-randomized after each capture.
(§3) Experiments 3 and 4 evaluated the respective abilities of the CPCs and a blend of brevicomin and thiazole to enhance the attractiveness of testosterone. […] Specifically, in Experiment 3, the treatment box in each pair was baited with brevicomin (1 mg) and thiazole (1 mg) formulated in mineral oil (10 ml) and contained in a 20-ml glass scintillation vial. […] To minimize any potential sources of error, treatment and control trap boxes in each experiment were fitted with the same glassware and volume of mineral oil.

wild mice [2] = assay: Experiment 3: field experiment, captures in paired baited trap boxes; assay type: in vivo, Mus musculus; settings: Exp. 3, paired trap boxes
Description: as §1, §2, §3

C[C@]12CC[C@H]3[C@@H](CCC4=CC(=O)CC[C@@]43C)[C@@H]1CC[C@@H]2O [testosterone]
adult females captured (wild mice [1]): four | adult males captured (wild mice [1]): seven | juvenile male captured (wild mice [1]): one | adult female mice captured (wild mice [2]): one
